Laboratory results published in patent publication US6812228B2, “Benzoxazines for use in the treatment of parkinson's disease” (Warner-Lambert Company, priority 2000, dated 2004).
Like-named read-outs stand apart in the source and are kept apart here.

Columns and labels:
[1] = biological target: T1, human muscarinic receptor subtype M5 (Homo sapiens, UniProt P08912); test: Muscarinic receptor binding, displacement of [3H]-NMS, membranes from transfected CHO cells
T1 sequence (P08912 1-532): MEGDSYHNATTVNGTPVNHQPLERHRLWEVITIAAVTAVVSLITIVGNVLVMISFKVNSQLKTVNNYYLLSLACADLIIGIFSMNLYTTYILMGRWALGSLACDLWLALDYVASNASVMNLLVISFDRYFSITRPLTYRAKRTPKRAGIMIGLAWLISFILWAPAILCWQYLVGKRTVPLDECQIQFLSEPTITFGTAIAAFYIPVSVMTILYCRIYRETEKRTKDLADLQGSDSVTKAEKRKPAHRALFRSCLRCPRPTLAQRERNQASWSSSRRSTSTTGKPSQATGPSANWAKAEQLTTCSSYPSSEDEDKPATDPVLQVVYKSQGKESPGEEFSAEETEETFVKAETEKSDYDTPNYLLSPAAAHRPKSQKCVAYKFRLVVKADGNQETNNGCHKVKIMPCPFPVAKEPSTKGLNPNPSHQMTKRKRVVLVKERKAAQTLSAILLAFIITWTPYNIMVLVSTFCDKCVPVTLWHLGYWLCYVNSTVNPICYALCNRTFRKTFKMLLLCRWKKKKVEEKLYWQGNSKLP
Procedure: (§1) The compounds were evaluated in standard assays used to measure muscarinic receptor binding, and they were compared with other benzoxazines described in Bioorganic & Medicinal Chemistry Letters 8, 1998:1991-1996, which is incorporated herein by reference. Specifically, the compounds were evaluated for their binding affinity toward five human muscarinic receptor subtypes (M1-M5) by the method of Dorje et al., J. Pharm. Exp. Ther. 1991;256:727-733, which is incorporated herein by reference. The binding was determined by measuring the displacement of [^3H]-NMS (N-methylscopolamine) binding using membranes from transfected Chinese hamster ovary (CHO) cells.

[2] = biological target: human muscarinic receptor subtype M3 (Homo sapiens, UniProt P20309); test: as above
Sequence of human muscarinic receptor subtype M3 (P20309 whole entry): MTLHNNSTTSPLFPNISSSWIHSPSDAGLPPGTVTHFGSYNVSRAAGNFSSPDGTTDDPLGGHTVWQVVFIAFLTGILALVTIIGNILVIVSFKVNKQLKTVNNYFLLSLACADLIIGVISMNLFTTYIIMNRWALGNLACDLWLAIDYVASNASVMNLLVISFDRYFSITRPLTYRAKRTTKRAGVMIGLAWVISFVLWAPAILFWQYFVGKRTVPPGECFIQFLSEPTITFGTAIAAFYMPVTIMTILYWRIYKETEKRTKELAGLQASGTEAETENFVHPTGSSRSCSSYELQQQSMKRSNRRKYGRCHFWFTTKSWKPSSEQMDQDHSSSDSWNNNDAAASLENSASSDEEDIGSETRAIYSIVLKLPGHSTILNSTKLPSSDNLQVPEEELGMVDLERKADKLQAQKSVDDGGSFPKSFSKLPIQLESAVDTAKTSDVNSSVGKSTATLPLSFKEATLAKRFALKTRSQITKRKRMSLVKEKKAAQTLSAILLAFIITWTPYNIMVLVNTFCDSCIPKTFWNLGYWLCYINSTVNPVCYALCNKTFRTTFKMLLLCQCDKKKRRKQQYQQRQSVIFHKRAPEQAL
Procedure: as §1

[3] = biological target: T2, human muscarinic receptor subtype M4 (Homo sapiens, UniProt P08173); test: as above; details: for binds to the M4 receptor more than to M3 (selectivity): M4 versus M3; for bind to M4 more than some of the other subtypes (selectivity): M4 versus some of the other subtypes, upper figure (as much as)
T2 sequence (P08173 1-479): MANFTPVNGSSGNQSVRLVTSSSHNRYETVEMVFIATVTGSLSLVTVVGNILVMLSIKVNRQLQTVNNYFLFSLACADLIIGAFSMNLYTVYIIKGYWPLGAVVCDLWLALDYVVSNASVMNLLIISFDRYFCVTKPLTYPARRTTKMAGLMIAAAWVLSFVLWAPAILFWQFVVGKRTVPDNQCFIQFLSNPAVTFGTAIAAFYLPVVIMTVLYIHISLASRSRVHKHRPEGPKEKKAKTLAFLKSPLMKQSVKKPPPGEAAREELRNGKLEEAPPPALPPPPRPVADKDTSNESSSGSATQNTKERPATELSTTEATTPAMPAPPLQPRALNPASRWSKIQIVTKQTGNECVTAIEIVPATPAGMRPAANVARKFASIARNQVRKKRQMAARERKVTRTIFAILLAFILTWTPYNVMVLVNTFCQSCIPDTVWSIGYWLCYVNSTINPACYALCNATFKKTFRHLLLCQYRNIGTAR
Procedure: as §1

[4] = biological target: T3, human muscarinic receptor subtype M2 (Homo sapiens, UniProt P08172); test: as above
T3 sequence (P08172 1-466): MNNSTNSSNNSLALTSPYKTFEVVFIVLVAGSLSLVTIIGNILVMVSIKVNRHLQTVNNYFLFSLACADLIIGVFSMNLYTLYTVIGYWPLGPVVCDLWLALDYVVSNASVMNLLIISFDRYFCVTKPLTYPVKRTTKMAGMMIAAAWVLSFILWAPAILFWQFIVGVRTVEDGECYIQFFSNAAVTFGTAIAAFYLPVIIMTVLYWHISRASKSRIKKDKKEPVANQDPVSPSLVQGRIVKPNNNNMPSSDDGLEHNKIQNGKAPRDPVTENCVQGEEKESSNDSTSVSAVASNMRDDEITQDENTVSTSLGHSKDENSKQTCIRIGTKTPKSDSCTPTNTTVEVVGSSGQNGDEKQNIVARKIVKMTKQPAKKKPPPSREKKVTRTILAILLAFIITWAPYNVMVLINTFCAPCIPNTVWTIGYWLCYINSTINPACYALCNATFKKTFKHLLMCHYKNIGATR
Procedure: as §1

[5] = biological target: T4, human muscarinic receptor subtype M1 (Homo sapiens, UniProt P11229); test: as above
T4 sequence (P11229 1-460): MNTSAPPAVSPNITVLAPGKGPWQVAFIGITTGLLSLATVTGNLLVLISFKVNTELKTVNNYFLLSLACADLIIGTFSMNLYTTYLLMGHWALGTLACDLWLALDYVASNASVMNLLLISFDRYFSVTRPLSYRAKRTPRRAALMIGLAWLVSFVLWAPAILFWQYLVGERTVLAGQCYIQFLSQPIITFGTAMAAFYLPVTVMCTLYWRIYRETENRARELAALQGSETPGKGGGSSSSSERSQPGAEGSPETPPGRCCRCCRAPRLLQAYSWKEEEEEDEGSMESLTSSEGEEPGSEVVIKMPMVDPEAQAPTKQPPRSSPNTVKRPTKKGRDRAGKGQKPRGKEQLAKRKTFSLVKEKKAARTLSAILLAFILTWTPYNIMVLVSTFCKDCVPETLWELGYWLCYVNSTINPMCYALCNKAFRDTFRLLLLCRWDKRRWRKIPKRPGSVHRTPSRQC
Procedure: as §1

[6] = [3H]-NMS displacement, CHO cell membranes, tested two to four times, SEM <=10%, read-out: Muscarinic Binding Activity M5 (IC50)
[7] = [3H]-NMS displacement, CHO cell membranes, tested two to four times, SEM <=10%, read-out: Muscarinic Binding Activity M3 (IC50)
[8] = [3H]-NMS displacement, CHO cell membranes, tested two to four times, SEM <=10%, read-out: Muscarinic Binding Activity M4 (IC50)
[9] = [3H]-NMS displacement, CHO cell membranes, tested two to four times, SEM <=10%, read-out: Muscarinic Binding Activity M2 (IC50)
[10] = [3H]-NMS displacement, CHO cell membranes, tested two to four times, SEM <=10%, read-out: Muscarinic Binding Activity M1 (IC50)

| Structure (SMILES) | melting point | IC50 [1, 6] | IC50 [2, 7] | IC50 [3, 8] | IC50 [4, 9] | IC50 [5, 10] | binds to the M4 receptor more than to M3 (selectivity) [3] | bind to M4 more than some of the other subtypes (selectivity) [3] | binds to the M4 receptor more than to M1, M2, and M5 (selectivity) ([3]; M4 versus M1, M2 and M5) | IC50 [1] | IC50 [2] | IC50 [3] | IC50 [4] | IC50 [5] |
| --- | --- | --- | --- | --- | --- | --- | --- | --- | --- | --- | --- | --- | --- | --- |
| CCCCCc1[nH]c2ccc3c(c2c1C(=O)OCC)CN1CCc2cc(OC)ccc2C1O3 (stereo not drawn) [Example 7, 9-Methoxy-2-pentyl-11,12-dihydro-3H,6aH,13H-6-oxa-3,12a-diaza-benzo[a]cyclopent[h]anthracene-1-carboxylic acid ethyl ester] | 170 to 172 °C | 10 µM | 200 nM | 10 nM | 600 nM | 50000 nM |  |  |  |  |  |  |  |  |
| CCOC(=O)c1c(C)n(CC)c2ccc3c(c12)CN1CCc2cc(OC)ccc2C1O3 (stereo not drawn) [Prior Art Compound Et/Me/9-OMe/Et, reference compound] |  |  |  |  |  |  |  |  |  | 3 µM | 500 nM | 50 nM | 400 nM | 2000 nM |
| CCOC(=O)c1c(C)[nH]c2ccc3c(c12)CN1CCc2cc(OC)ccc2C1O3 (stereo not drawn) [Prior Art Compound Et/Me/9-OMe/H, reference compound] |  | 6 µM | 500 nM | 30 nM | 1000 nM | 3000 nM |  |  |  |  |  |  |  |  |
| CCOC(=O)c1c(CC)[nH]c2ccc3c(c12)CN1CCc2cc(OC)ccc2C1O3 (stereo not drawn) [Prior Art Compound Et/Et/9-OMe/H, reference compound] |  | 6 µM | 200 nM | 20 nM | 2000 nM | 2000 nM |  |  |  |  |  |  |  |  |
| CCOC(=O)c1c(CC)n(CC)c2ccc3c(c12)CN1CCc2cc(OC)ccc2C1O3 (stereo not drawn) [Prior Art Compound Et/Et/9-OMe/Et, reference compound] |  |  |  |  |  |  |  |  |  | 5 µM | 50 nM | 20 nM | 1000 nM | 5000 nM |
| CCCCc1[nH]c2ccc3c(c2c1C(=O)OCC)CN1CCc2cc(OC)ccc2C1O3 (stereo not drawn) [Example 5, 2-Butyl-9-methoxy-11,12-dihydro-3H,6aH,13H-6-oxa-3,12a-diaza-benzo[a]cyclopent[h]anthracene-1-carboxylic acid ethyl ester] |  | 13 µM | 190 nM | 6 nM | 550 nM | 800 nM | about 30 fold | about 800 fold |  |  |  |  |  |  |

The remaining compounds from weak to strong by IC50 [1, 6], led by results:

| melting point | IC50 [1, 6] | IC50 [2, 7] | IC50 [3, 8] | IC50 [4, 9] | IC50 [5, 10] | binds to the M4 receptor more than to M3 (selectivity) [3] | bind to M4 more than some of the other subtypes (selectivity) [3] | binds to the M4 receptor more than to M1, M2, and M5 (selectivity) ([3]; M4 versus M1, M2 and M5) | Structure (SMILES) | IC50 [1] | IC50 [2] | IC50 [3] | IC50 [4] | IC50 [5] |
| --- | --- | --- | --- | --- | --- | --- | --- | --- | --- | --- | --- | --- | --- | --- |
| 150 to 151 °C | 6 µM | 130 nM | 7 nM | 950 nM | 3000 nM |  |  |  | CCCc1c(C(=O)OCC)c2c3c(ccc2n1C)OC1c2ccc(OC)cc2CCN1C3 (stereo not drawn) [Example 3, 9-Methoxy-3-methyl-2-propyl-11,12-dihydro-3H,6aH,13H-6-oxa-3,12a-diaza-benzo[a]cyclopent[h]anthracene-1-carboxylic acid ethyl ester] |  |  |  |  |  |
| 191 to 193 °C | 3.66 µM | 130 nM | 9 nM | 2000 nM | 4660 nM |  |  |  | CCCc1[nH]c2ccc3c(c2c1C(=O)OCC)CN1CCc2cc(OC)ccc2C1O3 (stereo not drawn) [Example 1, 9-Methoxy-2-propyl-11,12-dihydro-3H,6αH,13H-6-oxa-3,12α-diaza-benzo[a]cyclopent[h]anthracene-1-carboxylic acid ethyl ester] |  |  |  |  |  |
| 185 to 186 °C | 3.5 µM | 200 nM | 6 nM | 2000 nM | 1400 nM | about 30 fold | about 800 fold |  | CCCc1[nH]c2ccc3c(c2c1C(=O)OCC)CN1CCc2cc(SC)ccc2C1O3 (stereo not drawn) [Example 4, 9-Methylsulfanyl-2-propyl-11,12-dihydro-3H,6aH,13H-6-oxa-3,12a-diaza-benzo[a]cyclopent[h]anthracene-1-carboxylic acid ethyl ester] |  |  |  |  |  |
| 139 to 143 °C | 3 µM | 370 nM | 7 nM | 7000 nM | 7500 nM | about 52 fold |  | about 1000 fold | CCCc1c(C(=O)OCC)c2c3c(ccc2n1C)OC1c2ccc(SC)cc2CCN1C3 (stereo not drawn) [Example 2, 3-Methyl-9-methylsulfanyl-2-propyl-11,12-dihydro-3H,6aH,13H-6-oxa-3,12a-diaza-benzo[a]cyclopent[h]anthracene-1-carboxylic acid ethyl ester] |  |  |  |  |  |
| 157 to 160 °C | 3 µM | 400 nM | 30 nM | 800 nM | 2000 nM |  |  |  | CCCCCCc1[nH]c2ccc3c(c2c1C(=O)OCC)CN1CCc2cc(OC)ccc2C1O3 (stereo not drawn) [Example 8, 2-Hexyl-9-methoxy-11,12-dihydro-3H,6aH,13H-6-oxa-3,12a-diaza-benzo[a]cyclopent[h]anthracene-1-carboxylic acid ethyl ester] |  |  |  |  |  |
| 159 to 161 °C | 2 µM | 5000 nM | 10 nM | 4000 nM | 2000 nM |  |  |  | CCCCc1[nH]c2ccc3c(c2c1C(=O)OCC)CN1CCc2cc(SC)ccc2C1O3 (stereo not drawn) [Example 6, 2-Butyl-9-methylsulfanyl-11,12-dihydro-3H,6aH,13H-6-oxa-3,12a-diaza-benzo[a]cyclopent[h]anthracene-1-carboxylic acid ethyl ester] |  |  |  |  |  |
|  | 1 µM | 400 nM | 50 nM | 400 nM | 500 nM |  |  |  | CCOC(=O)c1c(C)n(C)c2ccc3c(c12)CN1CCc2cc(OC)ccc2C1O3 (stereo not drawn) [Prior Art Compound Et/Me/9-OMe/Me, reference compound] |  |  |  |  |  |
